From publication doi:10.1101/2025.09.24.678246 (bioRxiv, 2025)
Values joined by “and” are separate entries in the source; they are usually repeats but may differ in a detail not shown here. Equal entries are not always repeated. Where two headings read alike, the source gives them in different places.

What was measured:
[1] = test system: K. pneumoniae ATCC 43816; assay: MIC screening against Gram-negative pathogens: K. pneumoniae
Description: (§1) MIC measurements were based on a method previously described[6]. Overnight liquid cultures of E. coli BW, E. coli C0244, A. baumannii ATCC 17978, K. pneumoniae ATCC 43816, P. aeruginosa PA01 and E. faecium ATCC 19434 strains were inoculated with a single colony from a freshly streaked agar plate of the corresponding bacterial strain and cultured in M9 minimal medium supplemented with amino acids[6]. The bacterial culture was prepared by washing 1 mL of overnight culture in PBS pH 7.4 (x3), then diluted to OD600 = 0.5 and used to inoculate 1:1000 in M9 minimal medium with amino acids in 96-well plates. Compounds were added to 96-well plates in two-fold serial dilutions. The plates were incubated stationary at 37 °C for 18 h, then OD600 was measured. […] The assay was performed in duplicate.

[2] = molecular target: BioA (Mycobacterium tuberculosis, UniProt P9WQ81); assay: BioA inhibition assay (coupled BioA/BioD fluorescence displacement, IC50); format: biochemical
[3] = test system: Mtb H37Rv; format: in vivo, BALB/c mice; conditions: for spleen CFU: Day 42, standard acute model, BALB/c, per mouse
[4] = test system: P. aeruginosa PA01; assay: MIC screening against Gram-negative pathogens: P. aeruginosa
Description: as §1

[5] = p.o. 25 mg/kg, CD-1 mice

BioA, sequence (P9WQ81 whole entry, looked up): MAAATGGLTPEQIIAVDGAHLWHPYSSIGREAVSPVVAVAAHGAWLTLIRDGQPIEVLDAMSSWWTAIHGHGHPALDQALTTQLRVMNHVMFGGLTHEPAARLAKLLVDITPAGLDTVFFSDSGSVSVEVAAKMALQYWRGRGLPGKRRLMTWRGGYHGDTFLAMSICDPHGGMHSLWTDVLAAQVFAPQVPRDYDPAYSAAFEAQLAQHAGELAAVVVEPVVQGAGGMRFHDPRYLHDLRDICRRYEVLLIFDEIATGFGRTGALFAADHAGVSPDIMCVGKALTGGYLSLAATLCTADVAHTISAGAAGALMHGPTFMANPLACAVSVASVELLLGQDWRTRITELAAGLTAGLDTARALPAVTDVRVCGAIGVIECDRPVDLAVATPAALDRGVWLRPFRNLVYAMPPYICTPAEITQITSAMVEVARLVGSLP

In the case of O=C1CCc2cc(N3CCN(C(=O)c4ccc(F)c(Br)c4)CC3)ncc21 [C48], the MIC [1] is reported as “inactive”, the IC50 ([2]; 50 nM BioA) is reported as 34 nM and the activity ([2]; C48 2.60123 nM, 50 nM BioA) is reported as 100% and 105%. The activity at 0.00260123 µM ([2]; C48 2.60123 nM, 50 nM BioA) was 99.5%, the activity ([2]; C48 3.90184 nM, 50 nM BioA) was 98% and 101% and the activity at 0.00390184 µM ([2]; C48 3.90184 nM, 50 nM BioA) was 95.4%. The activity ([2]; C48 5.85277 nM, 50 nM BioA) was 98.6% and 97%, the activity at 0.00585277 µM ([2]; C48 5.85277 nM, 50 nM BioA) was 96.2% and the activity ([2]; C48 8.77915 nM, 50 nM BioA) was 94.6% and 97.2%. The activity at 0.00877915 µM ([2]; C48 8.77915 nM, 50 nM BioA) was 94%, the activity ([2]; C48 13.1687 nM, 50 nM BioA) was 90.9% and 91.4% and the activity at 0.0131687 µM ([2]; C48 13.1687 nM, 50 nM BioA) was 90.4%. For the same compound, the activity ([2]; C48 19.7531 nM, 50 nM BioA) was 81.3% and 85.6%, the activity at 0.0197531 µM ([2]; C48 19.7531 nM, 50 nM BioA) was 80.3% and the activity ([2]; C48 29.6296 nM, 50 nM BioA) was 64.4% and 66.5%. The activity at 0.0296296 µM ([2]; C48 29.6296 nM, 50 nM BioA) was 63.7%, the activity ([2]; C48 44.4444 nM, 50 nM BioA) was 19.1% and 25.7% and the activity at 0.0444444 µM ([2]; C48 44.4444 nM, 50 nM BioA) was 20.9%. The activity ([2]; C48 66.6667 nM, 50 nM BioA) was 0.926% and 1.11%, the activity at 0.0666667 µM ([2]; C48 66.6667 nM, 50 nM BioA) was 1.35% and the remaining activity at 0.00114183 µM ([2]; read-out: Vi/Vo %) was 103%. For the same compound, the remaining activity at 0.00171274 µM ([2]; read-out: Vi/Vo %) was 106%, the remaining activity at 0.00256912 µM ([2]; read-out: Vi/Vo %) was 106% and the remaining activity at 0.00385367 µM ([2]; read-out: Vi/Vo %) was 97%. It also gave a remaining activity at 0.00578051 µM ([2]; read-out: Vi/Vo %) of 96.5%, a remaining activity at 0.00867076 µM ([2]; read-out: Vi/Vo %) of 89.3% and a remaining activity at 0.0130061 µM ([2]; read-out: Vi/Vo %) of 88.9%. For the same compound, the remaining activity at 0.0195092 µM ([2]; read-out: Vi/Vo %) was 78.8%, the remaining activity at 0.0292638 µM ([2]; read-out: Vi/Vo %) was 60.8% and the remaining activity at 0.0438957 µM ([2]; read-out: Vi/Vo %) was 42%. For the same compound, the remaining activity at 0.0658436 µM ([2]; read-out: Vi/Vo %) was 0%, the remaining activity at 0.0987654 µM ([2]; read-out: Vi/Vo %) was 0% and the remaining activity at 0.148148 µM ([2]; read-out: Vi/Vo %) was 0%. The remaining activity at 0.222222 µM ([2]; read-out: Vi/Vo %) was 0%, the remaining activity at 0.333333 µM ([2]; read-out: Vi/Vo %) was 0% and the “spleen CFU” value ([3]; 100mg/kg C48 p.o.) was 1075 CFU and 3750 CFU and 6400 CFU and 18666.7 CFU and 6650 CFU and 6725 CFU. The “bacterial burden per mouse, Fig. 5B” value ([3]; 100 mg/kg, day 14 (values identical to Vehicle Control: baseline)) was 16500 and 43500 and 12750 and 24500 and 14500, the “bacterial burden per mouse, Fig. 5B” value ([3]; 100 mg/kg, day 28) was 170000 and the “bacterial burden per mouse, Fig. 5B” value ([3]; 100 mg/kg, day 42) was 325000 and 425000 and 1800000 and 566667 and 170000 and 673000. The “spleen CFU” value ([3]; 200mg/kg C48 p.o.) was 7225 CFU and 14500 CFU and 8975 CFU and 12750 CFU and 18750 CFU and 7075 CFU, the “bacterial burden per mouse, Fig. 5B” value ([3]; 200 mg/kg, day 14 (values identical to Vehicle Control: baseline)) was 16500 and 43500 and 12750 and 24500 and 14500 and the “bacterial burden per mouse, Fig. 5B” value ([3]; 200 mg/kg, day 42) was 552500 and 365000 and 477500 and 437500 and 560000 and 517500. The “efficacy in the conventional mouse model of TB” value ([3]; 100 and 200 mg/kg p.o.) was “failed to show efficacy”, the MIC [4] was “inactive” and the plasma concentration ([5]; 0 h) was 0. For the same compound, the plasma concentration ([5]; 0.5 h, 25 mg/kg) was 10400 and 11300 and 10800, the plasma concentration ([5]; 1 h, 25 mg/kg) was 15700 and 11100 and 13300 and the plasma concentration ([5]; 3 h, 25 mg/kg) was 12000 and 11100 and 12600. The plasma concentration ([5]; 5 h, 25 mg/kg) was 14500 and 12000 and 8860 and the plasma concentration ([5]; 7 h, 25 mg/kg) was 9480 and 6360 and 8380.
